Experimental data published in ChEMBL document CHEMBL1152890, “Synthesis and evaluation of a novel series of heterocyclic oleanolic acid derivatives with anti-osteoclast formation activity” (Eur J Med Chem, 2009).

Tests used:
[1] = Antiosteoclast activity in ICR mouse osteoblast like cells co-cultured with bone marrow cells assessed as recovery of 1-alpha,25(OH)2D3-induced TRAP-positive osteoclast like multinucleated cell formation at 20 uM after 6 days drug removal after 2 days relative to control; type: functional
[2] = Antiosteoclast activity in ICR mouse osteoblast like cells co-cultured with bone marrow cells assessed as effect on 1-alpha,25(OH)2D3-induced TRAP-positive osteoclast like multinucleated cell formation at 200 uM after 6 days medium replaced every 2 days relative to control; type: functional
[3] = Antiosteoclast activity in ICR mouse osteoblast like cells co-cultured with bone marrow cells assessed as effect on 1-alpha,25(OH)2D3-induced TRAP-positive osteoclast like multinucleated cell formation at 2 uM after 6 days medium replaced every 2 days relative to control; type: functional
[4] = Antiosteoclast activity in ICR mouse osteoblast like cells co-cultured with bone marrow cells assessed as effect on 1-alpha,25(OH)2D3-induced TRAP-positive osteoclast like multinucleated cell formation at 20 uM after 6 days medium replaced every 2 days relative to control; type: functional
[5] = Cytotoxicity against ICR mouse osteoblast like cells assessed as cell viability at 2 uM after 4 days drug removal after 2 days by MTT assay relative to control; type: cell-based; settings: read-out: Activity
[6] = Antiosteoclast activity in ICR mouse osteoblast like cells co-cultured with bone marrow cells assessed as recovery of 1-alpha,25(OH)2D3-induced TRAP-positive osteoclast like multinucleated cell formation at 2 uM after 6 days drug removal after 2 days relative to control; type: functional

| SMILES | Activity [1] | Activity [2] | Activity [3] | Activity [4] | viability at 96 h, 2 µM [5] | Activity [6] |
| --- | --- | --- | --- | --- | --- | --- |
| COC(=O)[C@H](C)NC(=O)[C@]12CCC(C)(C)C[C@H]1C1=CC[C@@H]3[C@@]4(C)Cc5nc6ccccc6nc5C(C)(C)[C@@H]4CC[C@@]3(C)[C@]1(C)CC2 | 97.7% | 77% | 25.7% | 31.2% | – | – |
| CC1(C)CC[C@]2(C(=O)O)CC[C@]3(C)C(=CC[C@@H]4[C@@]5(C)Cc6cc7ccccc7nc6C(C)(C)[C@@H]5CC[C@]43C)[C@@H]2C1 | 18.9% | 97.2% | 39.2% | 33.2% | 134% | 73% |
| CC1(C)CC[C@]2(C(=O)O)CC[C@]3(C)C(=CC[C@@H]4[C@@]5(C)Cc6nc(-c7ccccc7)c(-c7ccccc7)nc6C(C)(C)[C@@H]5CC[C@]43C)[C@@H]2C1 | 94.5% | – | 76.2% | 28.1% | – | – |
| CC(C)C[C@H](NC(=O)[C@]12CCC(C)(C)C[C@H]1C1=CC[C@@H]3[C@@]4(C)Cc5c([nH]c6ccc(Cl)cc56)C(C)(C)[C@@H]4CC[C@@]3(C)[C@]1(C)CC2)C(=O)O | 0% | – | 71.6% | 0% | – | – |
| CC[C@H](C)[C@H](NC(=O)[C@]12CCC(C)(C)C[C@H]1C1=CC[C@@H]3[C@@]4(C)Cc5c([nH]c6ccc(Cl)cc56)C(C)(C)[C@@H]4CC[C@@]3(C)[C@]1(C)CC2)C(=O)O | 0% | – | 86.9% | 0% | – | – |
| COC(=O)[C@H](Cc1ccccc1)NC(=O)[C@]12CCC(C)(C)C[C@H]1C1=CC[C@@H]3[C@@]4(C)Cc5nccnc5C(C)(C)[C@@H]4CC[C@@]3(C)[C@]1(C)CC2 | 89.5% | – | 82.8% | 29.6% | – | 95.6% |
| CC[C@H](C)[C@H](NC(=O)[C@]12CCC(C)(C)C[C@H]1C1=CC[C@@H]3[C@@]4(C)Cc5nccnc5C(C)(C)[C@@H]4CC[C@@]3(C)[C@]1(C)CC2)C(=O)OC | – | 101% | 0.7% | 0.7% | – | 96.2% |
| COC(=O)CNC(=O)[C@]12CCC(C)(C)C[C@H]1C1=CC[C@@H]3[C@@]4(C)CCC(=O)C(C)(C)[C@@H]4CC[C@@]3(C)[C@]1(C)CC2 | 41.3% | 31.7% | 27.2% | 0% | 141% | 73.9% |
| COC(=O)[C@@H](NC(=O)[C@]12CCC(C)(C)C[C@H]1C1=CC[C@@H]3[C@@]4(C)Cc5nc6ccccc6nc5C(C)(C)[C@@H]4CC[C@@]3(C)[C@]1(C)CC2)C(C)C | 94.6% | 93% | 37.1% | 36.3% | – | – |
| CC1(C)CC[C@]2(C(=O)O)CC[C@]3(C)C(=CC[C@@H]4[C@@]5(C)Cc6c([nH]c7ccc(Cl)cc67)C(C)(C)[C@@H]5CC[C@]43C)[C@@H]2C1 | 0% | 99.5% | 13% | 0% | 132% | 73.3% |
| COC(=O)[C@H](Cc1ccccc1)NC(=O)[C@]12CCC(C)(C)C[C@H]1C1=CC[C@@H]3[C@@]4(C)Cc5nc6ccccc6nc5C(C)(C)[C@@H]4CC[C@@]3(C)[C@]1(C)CC2 | 93.5% | 93% | 53.6% | 34.2% | – | – |
| COC(=O)CNC(=O)[C@]12CCC(C)(C)C[C@H]1C1=CC[C@@H]3[C@@]4(C)Cc5c([nH]c6ccccc56)C(C)(C)[C@@H]4CC[C@@]3(C)[C@]1(C)CC2 | 82.9% | 86.3% | 32.3% | 0% | – | 96.1% |
| CC1(C)CC[C@]2(C(=O)NCC(=O)O)CC[C@]3(C)C(=CC[C@@H]4[C@@]5(C)Cc6c([nH]c7ccc(Cl)cc67)C(C)(C)[C@@H]5CC[C@]43C)[C@@H]2C1 | 0% | – | 74.2% | 0% | – | – |
| COC(=O)[C@H](Cc1ccccc1)NC(=O)[C@]12CCC(C)(C)C[C@H]1C1=CC[C@@H]3[C@@]4(C)Cc5c([nH]c6ccc(Cl)cc56)C(C)(C)[C@@H]4CC[C@@]3(C)[C@]1(C)CC2 | 70.7% | – | – | 77.4% | – | 95.2% |
| CC(C)[C@H](NC(=O)[C@]12CCC(C)(C)C[C@H]1C1=CC[C@@H]3[C@@]4(C)Cc5c([nH]c6ccc(Cl)cc56)C(C)(C)[C@@H]4CC[C@@]3(C)[C@]1(C)CC2)C(=O)O | 0% | – | 80% | 0% | – | – |
| COC(=O)[C@H](CC(C)C)NC(=O)[C@]12CCC(C)(C)C[C@H]1C1=CC[C@@H]3[C@@]4(C)Cc5nccnc5C(C)(C)[C@@H]4CC[C@@]3(C)[C@]1(C)CC2 | – | 96.4% | 1.7% | 2.8% | – | 95.7% |
| COC(=O)[C@H](CC(C)C)NC(=O)[C@]12CCC(C)(C)C[C@H]1C1=CC[C@@H]3[C@@]4(C)Cc5nc6ccccc6nc5C(C)(C)[C@@H]4CC[C@@]3(C)[C@]1(C)CC2 | 97.3% | 91.2% | 55.1% | 14% | – | – |
| CC[C@H](C)[C@H](NC(=O)[C@]12CCC(C)(C)C[C@H]1C1=CC[C@@H]3[C@@]4(C)Cc5nc6ccccc6nc5C(C)(C)[C@@H]4CC[C@@]3(C)[C@]1(C)CC2)C(=O)O | 94.7% | 95% | 58.7% | 30.6% | – | – |
| CC[C@H](C)[C@H](NC(=O)[C@]12CCC(C)(C)C[C@H]1C1=CC[C@@H]3[C@@]4(C)Cc5nccnc5C(C)(C)[C@@H]4CC[C@@]3(C)[C@]1(C)CC2)C(=O)O | – | 52.6% | 16.2% | 73.7% | 109% | 81.3% |
| CC(C)C[C@H](NC(=O)[C@]12CCC(C)(C)C[C@H]1C1=CC[C@@H]3[C@@]4(C)Cc5nc6ccccc6nc5C(C)(C)[C@@H]4CC[C@@]3(C)[C@]1(C)CC2)C(=O)O | 92.3% | 86.3% | 58.3% | 45.9% | – | – |
| CC(C)C[C@H](NC(=O)[C@]12CCC(C)(C)C[C@H]1C1=CC[C@@H]3[C@@]4(C)Cc5nccnc5C(C)(C)[C@@H]4CC[C@@]3(C)[C@]1(C)CC2)C(=O)O | – | 100.2% | 21.2% | 44.8% | – | 93.9% |
| COC(=O)[C@@H](NC(=O)[C@]12CCC(C)(C)C[C@H]1C1=CC[C@@H]3[C@@]4(C)Cc5nccnc5C(C)(C)[C@@H]4CC[C@@]3(C)[C@]1(C)CC2)C(C)C | 73.1% | 78.4% | 59.8% | 27.8% | 142% | 77.6% |
| COC(=O)[C@H](C)NC(=O)[C@]12CCC(C)(C)C[C@H]1C1=CC[C@@H]3[C@@]4(C)Cc5nccnc5C(C)(C)[C@@H]4CC[C@@]3(C)[C@]1(C)CC2 | – | 93.7% | 3.8% | 3.4% | – | 96.1% |
| COC(=O)CNC(=O)[C@]12CCC(C)(C)C[C@H]1C1=CC[C@@H]3[C@@]4(C)Cc5nc6ccccc6nc5C(C)(C)[C@@H]4CC[C@@]3(C)[C@]1(C)CC2 | 94.3% | 34.1% | 31.9% | 20.7% | – | – |
| C[C@H](NC(=O)[C@]12CCC(C)(C)C[C@H]1C1=CC[C@@H]3[C@@]4(C)Cc5c([nH]c6ccc(Cl)cc56)C(C)(C)[C@@H]4CC[C@@]3(C)[C@]1(C)CC2)C(=O)O | 0% | 98.3% | 1.4% | 0% | – | 93.4% |
| CC1(C)CC[C@]2(C(=O)N[C@@H](Cc3ccccc3)C(=O)O)CC[C@]3(C)C(=CC[C@@H]4[C@@]5(C)Cc6c([nH]c7ccc(Cl)cc67)C(C)(C)[C@@H]5CC[C@]43C)[C@@H]2C1 | 0% | – | 77.8% | 0% | – | – |
| CC(C)[C@H](NC(=O)[C@]12CCC(C)(C)C[C@H]1C1=CC[C@@H]3[C@@]4(C)Cc5nc6ccccc6nc5C(C)(C)[C@@H]4CC[C@@]3(C)[C@]1(C)CC2)C(=O)O | – | 57.5% | 47.3% | 42.8% | 128% | 70.6% |
| CC1(C)CC[C@]2(C(=O)O)CC[C@]3(C)C(=CC[C@@H]4[C@@]5(C)Cc6nccnc6C(C)(C)[C@@H]5CC[C@]43C)[C@@H]2C1 | 93.2% | 97.6% | 16.4% | 1.8% | – | – |
| NCCCC(O)(P(=O)([O-])O)P(=O)(O)O.[Na+] [ALENDRONATE SODIUM] | – | 47.5% | 3.5% | 0% | – | – |
| CC1(C)CC[C@]2(C(=O)O)CC[C@]3(C)C(=CC[C@@H]4[C@@]5(C)CC[C@H](O)C(C)(C)[C@@H]5CC[C@]43C)[C@@H]2C1 [OLEANOLIC_ACID] | 98% | 97.5% | 89.5% | 19.4% | – | – |
